Laboratory results taken from publication PMC10006169, “A phase I trial of LXS196, a protein kinase C (PKC) inhibitor, for metastatic uveal melanoma” (British Journal of Cancer, 2023).
Like-named read-outs stand apart in the source and are kept apart here.

Test: Plasma pharmacokinetics (LC-MS/MS)
Assay type: in vivo, human
Conditions: human, plasma; for concentration at 15 day: read-out: Cmin, Median (Min, max)
Experimental: In the dose escalation part of the study, PK samples were collected at various pre- and post-dose time points on C1D1, D2, D3, D15 and D16. Drug concentrations were assessed using a validated liquid chromatography-tandem mass spectrometry assay.

CC1(N)CCN(c2cccnc2NC(=O)c2nc(-c3ncccc3C(F)(F)F)cnc2N)CC1 [LXS196]
AUC(0-t) (oral, 500 mg, C1D1, 500 mg QD, n=10, read-out: AUC0-t, Median (Min, max)): 50.7 µg·h/mL | AUC(0-inf) (oral, 500 mg, C1D1, 500 mg QD, n=10, read-out: AUCinf, Geo-mean): 59.5 µg·h/mL | AUC(0-inf) (oral, 500 mg, C1D1, 500 mg QD, n=10, read-out: AUCinf, Mean (SD)): 63.4 µg·h/mL | AUC(0-inf) (oral, 500 mg, C1D1, 500 mg QD, n=10, read-out: AUCinf, Median (Min, max)): 61.7 µg·h/mL | Cmax (oral, 500 mg, C1D1, 500 mg QD, n=10, read-out: Cmax, Geo-mean): 4.67 µg/mL | Cmax (oral, 500 mg, C1D1, 500 mg QD, n=10, read-out: Cmax, Mean (SD)): 4.97 µg/mL | Cmax (oral, 500 mg, C1D1, 500 mg QD, n=10, read-out: Cmax, Median (Min, max)): 4.38 µg/mL | half-life (oral, 500 mg, C1D1, 500 mg QD, n=10, read-out: T1/2, Geo-mean (converted)): 10.1 h | half-life (oral, 500 mg, C1D1, 500 mg QD, n=10, read-out: T1/2, Mean (SD) (converted)): 10.2 h | half-life (oral, 500 mg, C1D1, 500 mg QD, n=10, read-out: T1/2, Median (Min, max) (converted)): 10.1 h | Tmax (oral, 500 mg, C1D1, 500 mg QD, n=10, read-out: Tmax, Median (Min, max)): 1.03 h | AUC(0-t) (oral, 500 mg, C1D15, 500 mg QD, n=9, read-out: AUC0-t, Geo-mean): 43.1 µg·h/mL | AUC(0-t) (oral, 500 mg, C1D15, 500 mg QD, n=9, read-out: AUC0-t, Mean (SD)): 45.7 µg·h/mL | AUC(0-t) (oral, 500 mg, C1D15, 500 mg QD, n=9, read-out: AUC0-t, Median (Min, max)): 41.7 µg·h/mL | Cmax (oral, 500 mg, C1D15, 500 mg QD, n=9, read-out: Cmax, Geo-mean): 3.87 µg/mL | Cmax (oral, 500 mg, C1D15, 500 mg QD, n=9, read-out: Cmax, Mean (SD)): 4.17 µg/mL | Cmax (oral, 500 mg, C1D15, 500 mg QD, n=9, read-out: Cmax, Median (Min, max)): 3.7 µg/mL | concentration at 15 day (oral, 500 mg, C1D15, 500 mg QD, n=9): 0.643 µg/mL | Tmax (oral, 500 mg, C1D15, 500 mg QD, n=9, read-out: Tmax, Median (Min, max)): 1.07 h | AUC(0-t) (oral, 800 mg, C1D1, 800 mg QD, n=1, read-out: AUC0-t, Geo-mean): 54.3 µg·h/mL | AUC(0-t) (oral, 800 mg, C1D1, 800 mg QD, n=1, read-out: AUC0-t, Mean (SD)): 54.3 µg·h/mL | AUC(0-t) (oral, 800 mg, C1D1, 800 mg QD, n=1, read-out: AUC0-t, Median (Min, max)): 54.3 µg·h/mL | AUC(0-inf) (oral, 800 mg, C1D1, 800 mg QD, n=1, read-out: AUCinf, Geo-mean): 66.2 µg·h/mL | AUC(0-inf) (oral, 800 mg, C1D1, 800 mg QD, n=1, read-out: AUCinf, Mean (SD)): 66.2 µg·h/mL | AUC(0-inf) (oral, 800 mg, C1D1, 800 mg QD, n=1, read-out: AUCinf, Median (Min, max)): 66.2 µg·h/mL | Cmax (oral, 800 mg, C1D1, 800 mg QD, n=1, read-out: Cmax, Geo-mean): 6.08 µg/mL | Cmax (oral, 800 mg, C1D1, 800 mg QD, n=1, read-out: Cmax, Mean (SD)): 6.08 µg/mL | Cmax (oral, 800 mg, C1D1, 800 mg QD, n=1, read-out: Cmax, Median (Min, max)): 6.08 µg/mL | half-life (oral, 800 mg, C1D1, 800 mg QD, n=1, read-out: T1/2, Geo-mean (converted)): 8.85 h | half-life (oral, 800 mg, C1D1, 800 mg QD, n=1, read-out: T1/2, Mean (SD) (converted)): 8.85 h | half-life (oral, 800 mg, C1D1, 800 mg QD, n=1, read-out: T1/2, Median (Min, max) (converted)): 8.85 h | Tmax (oral, 800 mg, C1D1, 800 mg QD, n=1, read-out: Tmax, Median (Min, max)): 0.483 h | AUC(0-inf) (oral, 1000 mg, C1D1, 1000 mg QD, n=3, read-out: AUCinf, Geo-mean): 75.7 µg·h/mL | AUC(0-inf) (oral, 1000 mg, C1D1, 1000 mg QD, n=3, read-out: AUCinf, Mean (SD)): 78 µg·h/mL | AUC(0-inf) (oral, 1000 mg, C1D1, 1000 mg QD, n=3, read-out: AUCinf, Median (Min, max)): 66 µg·h/mL | half-life (oral, 1000 mg, C1D1, 1000 mg QD, n=3, read-out: T1/2, Geo-mean (converted)): 9.94 h | half-life (oral, 1000 mg, C1D1, 1000 mg QD, n=3, read-out: T1/2, Mean (SD) (converted)): 10 h | half-life (oral, 1000 mg, C1D1, 1000 mg QD, n=3, read-out: T1/2, Median (Min, max) (converted)): 9.32 h | AUC(0-t) (oral, 1000 mg, C1D1, 1000 mg QD, n=4, read-out: AUC0-t, Geo-mean): 69.7 µg·h/mL | AUC(0-t) (oral, 1000 mg, C1D1, 1000 mg QD, n=4, read-out: AUC0-t, Mean (SD)): 74.3 µg·h/mL | AUC(0-t) (oral, 1000 mg, C1D1, 1000 mg QD, n=4, read-out: AUC0-t, Median (Min, max)): 70.1 µg·h/mL | Cmax (oral, 1000 mg, C1D1, 1000 mg QD, n=4, read-out: Cmax, Geo-mean): 5.08 µg/mL | Cmax (oral, 1000 mg, C1D1, 1000 mg QD, n=4, read-out: Cmax, Mean (SD)): 5.41 µg/mL | Cmax (oral, 1000 mg, C1D1, 1000 mg QD, n=4, read-out: Cmax, Median (Min, max)): 5.23 µg/mL | Tmax (oral, 1000 mg, C1D1, 1000 mg QD, n=4, read-out: Tmax, Median (Min, max)): 2 h | AUC(0-t) (oral, 1000 mg, C1D15, 1000 mg QD, n=2, read-out: AUC0-t, Geo-mean): 48 µg·h/mL | AUC(0-t) (oral, 1000 mg, C1D15, 1000 mg QD, n=2, read-out: AUC0-t, Mean (SD)): 48.3 µg·h/mL | AUC(0-t) (oral, 1000 mg, C1D15, 1000 mg QD, n=2, read-out: AUC0-t, Median (Min, max)): 48.3 µg·h/mL | Cmax (oral, 1000 mg, C1D15, 1000 mg QD, n=2, read-out: Cmax, Geo-mean): 4.87 µg/mL | Cmax (oral, 1000 mg, C1D15, 1000 mg QD, n=2, read-out: Cmax, Mean (SD)): 5.11 µg/mL | Cmax (oral, 1000 mg, C1D15, 1000 mg QD, n=2, read-out: Cmax, Median (Min, max)): 5.11 µg/mL | concentration at 15 day (oral, 1000 mg, C1D15, 1000 mg QD, n=2): 0.674 µg/mL | Tmax (oral, 1000 mg, C1D15, 1000 mg QD, n=2, read-out: Tmax, Median (Min, max)): 0.792 h | half-life (oral, across different doses, read-out: Terminal T1/2 (converted)): ~11 h | Tmax (oral, fasting, 100–1000 mg QD and 200–400 mg BID, read-out: Tmax): ~1 h | Tmax (po, D1 and D15, read-out: Median Tmax, range across dose groups): 0.483 to 2 h | half-life (po, read-out: Mean terminal half-life (T1/2), range across dose groups): 8.49 to 13.8 h
